The values that follow come from patent US20050214738A1, “Conditional allele system” (priority 2003, published 2005).

One experiment has as its system mutant FRBs. Briefly: SeAP transcriptional switch assay, panel of FRB mutants at 2095, 2098, 2101. The experiment is classed as cell-based, human. The note with it: Phe at 2101. The method, then: All FRB mutants were prepared by the Quikchange mutagenesis method (Stratagene) using protocols provided by the manufacturer. Briefly, PCR reactions containing the parent plasmid pBJ5-FRB-VP16-HA or pBJ5-FRB*-VP16-HA and overlapping oligonucleotides containing the relevant base changes were performed with Pfu polymerase (Stratagene, San Diego, Calif.). PCR reactions were digested with the methylation sensitive restriction endonuclease Dpn1 to eliminate the parent plasmid and the reaction was transformed in XL10-Gold Ultracompetent E. coli (Stratagene).
Electroporation details are available upon request. Cells were immediately aliquoted to 2 or 3×96 well plates with flat bottoms. […] Data was analysed with Softmax Pro (Molecular Devices), Microsoft Excel and Prism 3 (GraphPad Software).

For the next experiment, the target named is T1, FKBP-GSK3β-GFP (Homo sapiens, UniProt P62942).
T1 construct: expressed in transfected cells; host or cells: COS1 cells
In words: Sub-cellular localization of FKBP-GSK3β-GFP with FRB(TLW)-NES and FRB(KTF)-NLS in COS1 cells. The experiment is classed as cell-based. The settings on record: 10 nM, 1 hour. The method, then:
COS1 cells were electroporated with 1 μg pS-FKBP-GSK3β-GFP, 1 μg of the ‘exporter’ pBJ5-FRB(TLW)-Exp-HA containing a nuclear export sequence derived from the rev protein of Human Immunodeficiency Virus and 3 μg of the ‘importer’ pBJ5-FRB(KTF)-Imp with a nuclear localization sequence from SV40 Large T antigen. Cells were plated on autoclaved coverslips and incubated 36 hours followed by 1 hour of rapalog treatment (10 nM). Cells were fixed 10 minutes in 4% paraformaldeyde/PBS at 4° C. and mounted for microscopy with DAPI to visualize the nucleus. Microscopy was perfomed with a Leica confocal microscope and Leica software.

T1 sequence (P62942 whole entry): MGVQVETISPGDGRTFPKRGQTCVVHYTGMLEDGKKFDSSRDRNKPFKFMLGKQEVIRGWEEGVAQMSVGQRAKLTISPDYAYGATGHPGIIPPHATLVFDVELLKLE

With “C16-(S)Butylsulfonylrapamycin [C16-BSrap, reference compound]”, the “binding to mutant FRBs with Phe substituted at amino acid 2101” value in the experiment on mutant FRBs is “little or no binding”. On FKBP-GSK3β-GFP, the “sub-cellular localization of GSK3β” value is on record as “localized to the cytoplasm”.
